Results as given in US10238743B2 (Merck Sharp & Dohme Corp., priority 2014, dated 2019).

Key:
[1] = target: soluble human BACE1 catalytic domain (Homo sapiens (Human), UniProt P56817); test: BACE1 HTRF FRET Assay; assay type: biochemical; details: Ki calculated from IC50 using the Cheng-Prusoff equation; QSY7-APPswe-Eu substrate, pH 5.0; read-out: BACE-1 Ki
Source text: Na^+-Acetate pH 5.0; 1% Brij-35; Glycerol; Dimethyl Sulfoxide (DMSO); Recombinant human soluble BACE1 catalytic domain (>95% pure); APP Swedish mutant peptide substrate (QSY7-APP^swe-Eu): QSY7-EISEVNLDAEFC-Europium-amide.
A homogeneous time-resolved FRET assay can be used to determine IC50 values for inhibitors of the soluble human BACE1 catalytic domain. This assay monitors the increase of 620 nm fluorescence that resulted from BACE1 cleavage of an APPswedish APP^swe mutant peptide FRET substrate (QSY7-EISEVNLDAEFC-Europium-amide). This substrate contains an N-terminal QSY7 moiety that serves as a quencher of the C-terminal Europium fluorophore (620 nm Em). In the absence of enzyme activity, 620 nm fluorescence is low in the assay and increased linearly over 3 hours in the presence of uninhibited BACE1 enzyme. Inhibition of BACE1 cleavage of the QSY7-APP^swe-Eu substrate by inhibitors is manifested as a suppression of 620 nm fluorescence.
Varying concentrations of inhibitors at 3× the final desired concentration in a volume of 10 ul are preincubated with purified human BACE1 catalytic domain (3 nM in 10 μl) for 30 minutes at 30° C. in reaction buffer containing 20 mM Na-Acetate pH 5.0, 10% glycerol, 0.1% Brij-35 and 7.5% DSMO. Reactions are initiated by addition of 10 μl of 600 nM QSY7-APP^swe-Eu substrate (200 nM final) to give a final reaction volume of 30 μl in a 384 well Nunc HTRF plate. The reactions are incubated at 30° C. for 1.5 hours. The 620 nm fluorescence is then read on a Rubystar HTRF plate reader (BMG Labtechnologies) using a 50 millisecond delay followed by a 400 millisecond acquisition time window. Inhibitor IC50 values are derived from non-linear regression analysis of concentration response curves. Ki values are then calculated from IC50 values using the Cheng-Prusoff equation using a previously determined […] of 8 μM for the QSY7-APP^swe-Eu substrate at BACE1.

[2] = target: purified human autoBACE-2 (Homo sapiens (Human), UniProt Q9Y5Z0); test: BACE-2 Assay (BACE-HTRF assay); assay type: biochemical; details: Ki calculated from IC50 using the Cheng-Prusoff equation; QSY7-EISEVNLDAEFC-Eu-amide substrate, pH 5.0
purified human autoBACE-2, sequence (Q9Y5Z0 63-473 limits assumed): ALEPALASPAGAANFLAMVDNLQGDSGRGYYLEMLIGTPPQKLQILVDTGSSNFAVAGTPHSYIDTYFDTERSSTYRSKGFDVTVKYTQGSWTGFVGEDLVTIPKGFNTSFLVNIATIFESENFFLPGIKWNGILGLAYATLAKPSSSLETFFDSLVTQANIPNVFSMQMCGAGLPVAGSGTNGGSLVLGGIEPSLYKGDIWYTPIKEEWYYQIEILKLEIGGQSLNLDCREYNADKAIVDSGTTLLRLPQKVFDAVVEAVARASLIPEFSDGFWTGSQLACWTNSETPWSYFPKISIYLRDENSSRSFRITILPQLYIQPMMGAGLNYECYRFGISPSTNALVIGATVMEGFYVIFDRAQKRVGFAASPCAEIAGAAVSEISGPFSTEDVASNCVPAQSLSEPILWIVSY
Protocol: Inhibitor IC50s at purified human autoBACE-2 are determined in a time-resolved endpoint proteolysis assay that measures hydrolysis of the QSY7-[…]-Eu-amide FRET peptide substrate (BACE-HTRF assay). […] DMSO is present at 5% final concentration in the assay. Following laser excitation of sample wells at 320 nm, the fluorescence signal at 620 nm is collected for 400 ms following a 50 μs delay on a RUBYstar HTRF plate reader (BMG Labtechnologies). Raw RFU data is normalized to maximum (1.0 nM BACE/DMSO) and minimum (no enzyme/DMSO) RFU values. […] The Ki values are calculated from the IC50 using the Cheng-Prusoff equation.

soluble human BACE1 catalytic domain, sequence (P56817 75-416): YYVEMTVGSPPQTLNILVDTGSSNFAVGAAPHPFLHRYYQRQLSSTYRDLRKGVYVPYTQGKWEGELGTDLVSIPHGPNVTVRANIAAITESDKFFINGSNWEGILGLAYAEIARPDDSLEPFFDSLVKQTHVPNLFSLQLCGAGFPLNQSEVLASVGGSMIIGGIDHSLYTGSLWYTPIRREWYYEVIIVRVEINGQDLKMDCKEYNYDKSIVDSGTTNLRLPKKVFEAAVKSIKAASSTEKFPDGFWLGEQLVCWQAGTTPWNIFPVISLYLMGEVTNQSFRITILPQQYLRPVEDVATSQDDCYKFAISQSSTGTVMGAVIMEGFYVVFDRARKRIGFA

| Structure (SMILES) | Ki [1] [µM] | Ki [2] [µM] |
| --- | --- | --- |
| CN1C(=N)N[C@]2(C)c3cc(NC(=O)c4ccc(Cl)cn4)ccc3OCC[C@H]2S1(=O)=O [Example 1, 5-chloro-N-((4aR,11bR)-2-imino-3,11b-dimethyl-4,4-dioxido-2,3,4a,5,6,11b-hexahydro-1H-benzo[2,3]oxepino[4,5-e][1,2,4]thiadiazin-10-yl)picolinamide] | 0.072 | 0.065 |
| CN1C(=N)N[C@]2(C)c3cc(NC(=O)c4ccccn4)ccc3OCC[C@H]2S1(=O)=O [Example 2, N-((4aR,11bR)-2-imino-3,11b-dimethyl-4,4-dioxido-2,3,4a,5,6,11b-hexahydro-1H-benzo[2,3]oxepino[4,5-e][1,2,4]thiadiazin-10-yl)picolinamide] | 0.508 | 0.279 |
| Cc1nc(C(=O)Nc2ccc3c(c2)[C@@]2(C)NC(=N)N(C)S(=O)(=O)[C@@H]2CCO3)c(C)o1 [Example 3, N-((4aR,11bR)-2-imino-3,11b-dimethyl-4,4-dioxido-2,3,4a,5,6,11b-hexahydro-1H-benzo[2,3]oxepino[4,5-e][1,2,4]thiadiazin-10-yl)-2,5-dimethyloxazole-4-carboxamide] | 0.265 | 0.384 |
| COCC(=O)Nc1ccc2c(c1)[C@@]1(C)NC(=N)N(C)S(=O)(=O)[C@@H]1CCO2 [Example 4, N-((4aR,11bR)-2-imino-3,11b-dimethyl-4,4-dioxido-2,3,4a,5,6,11b-hexahydro-1H-benzo[2,3]oxepino[4,5-e][1,2,4]thiadiazin-10-yl)-2-methoxyacetamide] | 1.36 | 0.89 |
| CN1C(=N)N[C@]2(C)c3cc(NC(=O)c4ccc(C#N)cn4)ccc3OCC[C@H]2S1(=O)=O [Example 5, 5-cyano-N-((4aR,11bR)-2-imino-3,11b-dimethyl-4,4-dioxido-2,3,4a,5,6,11b-hexahydro-1H-benzo[2,3]oxepino[4,5-e][1,2,4]thiadiazin-10-yl)picolinamide] | 0.047 | 0.303 |
| C#CCOc1ccc(C(=O)Nc2ccc3c(c2)[C@@]2(C)NC(=N)N(C)S(=O)(=O)[C@@H]2CCO3)nc1 [Example 6, N-((4aR,11bR)-2-imino-3,11b-dimethyl-4,4-dioxido-2,3,4a,5,6,11b-hexahydro-1H-benzo[2,3]oxepino[4,5-e][1,2,4]thiadiazin-10-yl)-5-(prop-2-yn-1-yloxy)picolinamide] | 0.025 | 0.995 |
| CN1C(=N)N[C@]2(C)c3cc(NC(=O)c4ccc(F)cn4)ccc3OCC[C@H]2S1(=O)=O [Example 7, 5-fluoro-N-((4aR,11bR)-2-imino-3,11b-dimethyl-4,4-dioxido-2,3,4a,5,6,11b-hexahydro-1H-benzo[2,3]oxepino[4,5-e][1,2,4]thiadiazin-10-yl)picolinamide] | 0.108 | 0.159 |
| Cc1cc(F)cnc1C(=O)Nc1ccc2c(c1)[C@@]1(C)NC(=N)N(C)S(=O)(=O)[C@@H]1CCO2 [Example 8, 5-fluoro-N-((4aR,11bR)-2-imino-3,11b-dimethyl-4,4-dioxido-2,3,4a,5,6,11b-hexahydro-1H-benzo[2,3]oxepino[4,5-e][1,2,4]thiadiazin-10-yl)-3-methylpicolinamide] | 0.133 | 0.086 |
| COc1cnc(C(=O)Nc2ccc3c(c2)[C@@]2(C)NC(=N)N(C)S(=O)(=O)[C@@H]2CCO3)cn1 [Example 9, N-((4aR,11bR)-2-imino-3,11b-dimethyl-4,4-dioxido-2,3,4a,5,6,11b-hexahydro-1H-benzo[2,3]oxepino[4,5-e][1,2,4]thiadiazin-10-yl)-5-methoxypyrazine-2-carboxamide] | 0.591 | 5.61 |
| CN1C(=N)N[C@]2(C)c3cc(NC(=O)c4ccccn4)ccc3OCC[C@@H]2S1(=O)=O [Example 10, N-((4aS,11bR)-2-imino-3,11b-dimethyl-4,4-dioxido-2,3,4a,5,6,11b-hexahydro-1H-benzo[2,3]oxepino[4,5-e][1,2,4]thiadiazin-10-yl)picolinamide] | 0.035 | 0.015 |
| CN1C(=N)N[C@]2(C)c3cc(NC(=O)c4ncc(Cl)cc4Cl)ccc3OCC[C@@H]2S1(=O)=O [Example 11] | 0.002 | 0.002 |
| CN1C(=N)N[C@]2(C)c3cc(NC(=O)c4ccc(OC(F)F)cn4)ccc3OCC[C@@H]2S1(=O)=O [Example 12, 5-(difluoromethoxy)-N-((4aS,11bR)-2-imino-3,11b-dimethyl-4,4-dioxido-2,3,4a,5,6,11b-hexahydro-1H-benzo[2,3]oxepino[4,5-e][1,2,4]thiadiazin-10-yl)picolinamide] | 0.005 | 0.058 |
| CN1C(=N)N[C@]2(C)c3cc(NC(=O)c4ncc(Cl)cc4F)ccc3OCC[C@@H]2S1(=O)=O [Example 13, 5-chloro-3-fluoro-N-((4aS,11bR)-2-imino-3,11b-dimethyl-4,4-dioxido-2,3,4a,5,6,11b-hexahydro-1H-benzo[2,3]oxepino[4,5-e][1,2,4]thiadiazin-10-yl)picolinamide] | 0.004 | 0.004 |
| CN1C(=N)N[C@]2(C)c3cc(NC(=O)c4ccc(F)cn4)ccc3OCC[C@@H]2S1(=O)=O [Example 14, 5-fluoro-N-((4aS,11bR)-2-imino-3,11b-dimethyl-4,4-dioxido-2,3,4a,5,6,11b-hexahydro-1H-benzo[2,3]oxepino[4,5-e][1,2,4]thiadiazin-10-yl)picolinamide] | 0.01 | 0.006 |
| CN1C(=N)N[C@]2(C)c3cc(NC(=O)c4ncc(F)cc4F)ccc3OCC[C@@H]2S1(=O)=O [Example 15] | 0.01 | 0.006 |
| CN1C(=N)N[C@]2(C)c3cc(NC(=O)c4ccc(C#N)cn4)ccc3OCC[C@@H]2S1(=O)=O [Example 16, 5-cyano-N-((4aS,11bR)-2-imino-3,11b-dimethyl-4,4-dioxido-2,3,4a,5,6,11b-hexahydro-1H-benzo[2,3]oxepino[4,5-e][1,2,4]thiadiazin-10-yl)picolinamide] | 0.001 | 0.014 |
| Cc1ccc(C(=O)Nc2ccc3c(c2)[C@@]2(C)NC(=N)N(C)S(=O)(=O)[C@H]2CCO3)nc1 [Example 17, N-((4aS,11bR)-2-imino-3,11b-dimethyl-4,4-dioxido-2,3,4a,5,6,11b-hexahydro-1H-benzo[2,3]oxepino[4,5-e][1,2,4]thiadiazin-10-yl)-5-methylpicolinamide] | 0.018 | 0.016 |
| CN1C(=N)N[C@]2(C)c3cc(NC(=O)c4ccc(C(F)(F)F)cn4)ccc3OCC[C@@H]2S1(=O)=O [Example 18, N-((4aS,11bR)-2-imino-3,11b-dimethyl-4,4-thoxido-2,3,4a,5,6,11b-hexahydro-1H-benzo[2,3]oxepino[4,5-e][1,2,4]thiadiazin-10-yl)-5-(trifluoromethyl)picolinamide] | 0.011 | 0.079 |
| CN1C(=N)N[C@]2(C)c3cc(NC(=O)c4ccc(OC(F)(F)F)cn4)ccc3OCC[C@@H]2S1(=O)=O [Example 19, N-((4aS,11bR)-2-imino-3,11b-dimethyl-4,4-dioxido-2,3,4a,5,6,11b-hexahydro-1H-benzo[2,3]oxepino[4,5-e][1,2,4]thiadiazin-10-yl)-5-(trifluoromethoxy)picolinamide] | 0.008 | 0.104 |
| CN1C(=N)N[C@]2(C)c3cc(NC(=O)c4ncc(C(F)(F)F)cc4Cl)ccc3OCC[C@@H]2S1(=O)=O [Example 20, 3-chloro-N-((4aS,11bR)-2-imino-3,11b-dimethyl-4,4-dioxido-2,3,4a,5,6,11b-hexahydro-1H-benzo[2,3]oxepino[4,5-e][1,2,4]thiadiazin-10-yl)-5-(trifluoromethyl)picolinamide] | 0.005 | 0.036 |
| Cc1ccc(C(=O)Nc2ccc3c(c2)[C@@]2(C)NC(=N)N(C)S(=O)(=O)[C@H]2CCC3)nc1 [Example 21, N-((4aS,11bR)-2-imino-3,11b-dimethyl-4,4-dioxido-1,2,3,4a,5,6,7,11b-octahydrobenzo[6,7]cyclohepta[1,2-e][1,2,4]thiadiazin-10-yl)-5-methylpicolinamide] | 0.045 | 0.034 |
